This note sets out measurements from PMC7044277 (Nature Communications, 2020).

What all share (assay type): cell-based
Test [1] addresses T1, 320 non-olfactory GPCRs (Homo sapiens, UniProt P24530).
T1 construct: expressed in transfected cells; host or cells: HTLA cells

For test [2], the target named is T2, 320 non-olfactory GPCRs (Homo sapiens, UniProt P32247).
T2 construct: expressed in transfected cells; host or cells: HTLA cells

In test [3] the target is 320 non-olfactory GPCRs (Homo sapiens, UniProt Q15743). The note with it: receptor GPR68 no V2 Tail; replicate values, Fig_4g.
Test [4] deals with T3, 320 non-olfactory GPCRs (Homo sapiens, UniProt Q96LB2).
T3 construct: expressed in transfected cells; host or cells: HTLA cells
Conditions: receptor MRGPRX1; replicate values, Fig_4g.

The structures appear in SMILES notation. “And” between values parts separate entries of the source, which are not always exact repeats. Identical values can stand only once.
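For Fold of Basal in this document: compound tested at 1 µM final concentration.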
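For GPCRome agonism screen response in this document: fold over basal response of each receptor without drug.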

T2 sequence (P32247 whole entry): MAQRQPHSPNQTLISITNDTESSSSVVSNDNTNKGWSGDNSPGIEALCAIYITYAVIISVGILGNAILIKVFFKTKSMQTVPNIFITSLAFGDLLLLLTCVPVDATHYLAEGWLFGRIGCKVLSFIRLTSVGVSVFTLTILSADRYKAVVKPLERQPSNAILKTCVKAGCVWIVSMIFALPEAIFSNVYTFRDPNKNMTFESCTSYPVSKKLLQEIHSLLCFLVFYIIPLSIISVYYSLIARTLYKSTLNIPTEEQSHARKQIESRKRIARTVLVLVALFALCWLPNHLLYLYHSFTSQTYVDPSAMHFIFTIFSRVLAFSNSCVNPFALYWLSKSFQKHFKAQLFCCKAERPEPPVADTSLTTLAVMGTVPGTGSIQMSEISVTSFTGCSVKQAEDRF
T3 sequence (Q96LB2 whole entry): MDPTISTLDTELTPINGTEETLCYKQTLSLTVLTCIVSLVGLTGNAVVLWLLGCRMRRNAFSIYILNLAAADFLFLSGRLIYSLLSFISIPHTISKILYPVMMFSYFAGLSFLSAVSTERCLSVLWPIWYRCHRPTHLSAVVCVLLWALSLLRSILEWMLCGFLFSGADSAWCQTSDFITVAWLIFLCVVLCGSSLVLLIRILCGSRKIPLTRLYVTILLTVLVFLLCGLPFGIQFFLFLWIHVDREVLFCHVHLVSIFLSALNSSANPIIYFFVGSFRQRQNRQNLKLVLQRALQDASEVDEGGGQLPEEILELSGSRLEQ
Chain of 320 non-olfactory GPCRs (Homo sapiens, UniProt Q15743) (Q15743 whole entry): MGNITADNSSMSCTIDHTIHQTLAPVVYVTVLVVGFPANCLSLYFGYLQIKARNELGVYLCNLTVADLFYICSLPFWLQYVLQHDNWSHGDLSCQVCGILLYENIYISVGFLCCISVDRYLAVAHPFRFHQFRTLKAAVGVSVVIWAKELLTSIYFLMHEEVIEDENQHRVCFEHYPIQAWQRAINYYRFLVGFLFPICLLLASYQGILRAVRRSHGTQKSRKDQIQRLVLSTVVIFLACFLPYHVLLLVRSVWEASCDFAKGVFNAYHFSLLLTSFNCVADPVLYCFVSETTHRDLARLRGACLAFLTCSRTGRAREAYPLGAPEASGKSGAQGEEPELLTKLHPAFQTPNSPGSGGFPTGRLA
T1 sequence (P24530 27-442): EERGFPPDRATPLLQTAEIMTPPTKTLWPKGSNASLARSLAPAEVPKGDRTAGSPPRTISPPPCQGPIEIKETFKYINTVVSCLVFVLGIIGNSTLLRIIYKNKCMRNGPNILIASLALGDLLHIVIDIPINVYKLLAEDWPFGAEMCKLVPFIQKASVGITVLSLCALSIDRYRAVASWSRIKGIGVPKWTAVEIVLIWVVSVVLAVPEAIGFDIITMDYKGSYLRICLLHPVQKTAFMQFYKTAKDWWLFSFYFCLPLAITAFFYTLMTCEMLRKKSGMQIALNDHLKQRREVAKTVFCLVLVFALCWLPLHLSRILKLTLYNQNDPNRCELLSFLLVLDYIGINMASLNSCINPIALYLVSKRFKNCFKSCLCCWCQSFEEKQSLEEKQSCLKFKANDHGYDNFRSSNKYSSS

With `CCOc1cccc2cc(C(C)NCC3(O)CCCCC3)oc12` (stereo not shown) [O4LE6], the “Fold of Basal” value in test [1] is 0.7302 and 0.8478 and 0.8324 and 1.412; in test [2], 1.192 and 1.354 and 1.033 and 1.091. For the same compound, the “GPCRome agonism screen response” value in test [3] is 1.945 and 0.5249 and 1.001 and 1.345; in test [4] it was 1.163 and 1.233 and 1.345 and 0.8039.
